Results reported in ChEMBL document CHEMBL6083208, “Integrating amino acids into Bcr-Abl inhibitors: design, synthesis, biological evaluation, and in silico studies” (RSC Med Chem, 2024).
The source made the active and inactive calls. The calls are words filed in the database; no cut-off is given here.

Assays:
HEK293 = assay: Antiproliferative activity against HEK293 cells after 48 hrs by MTT assay; type: toxicity, cell-based; design: concentration or dose not given beside the values; details: human, hek293, 48 h
BaF3 [1] = assay: Antiproliferative activity against mouse BaF3 cells harbouring Bcr-Abl T315I assessed of cell viability at 30 uM incubated for 72 hrs by Celltiter-glo luminescent cell viability assay relative to control; type: functional
K562 [2] = assay: cells; details: Homo sapiens, K562, 48 h
Bcr/Abl fusion protein = Bcr/Abl fusion protein (Homo sapiens, UniProt P00519); assay: Inhibition of wild type Bcr-Abl (unknown origin) using Abltide as substrate incubated for 1 hr by luminescence based ADP-glo assay; type: protein assay
BaF3 [3] = assay: Antiproliferative activity against mouse BaF3 cells harbouring Bcr-Abl T315I assessed of cell viability at 2 uM incubated for 72 hrs by Celltiter-glo luminescent cell viability assay relative to control; type: functional
BaF3 [4] = assay: Antiproliferative activity against mouse BaF3 cells harbouring Bcr-Abl T315I assessed of cell viability at 10 uM incubated for 72 hrs by Celltiter-glo luminescent cell viability assay relative to control; type: functional
THP-1 = assay: Antiproliferative activity against human THP-1 cells after 48 hrs by MTT assay; type: functional; design: concentration or dose not given beside the values
[5] = Inhibition of Bcr-Abl T315Ialpha mutant (unknown origin) using Abltide as substrate incubated for 1 hr by luminescence based ADP-glo assay; design: species or system Homo sapiens
K562 [6] = assay: Induction of apoptosis in human K562 cells assessed as necrotic cells at 10 uM measured after 48 hrs by annexin-V/FITC and propidium iodide double staining based flow cytometry analysis (reference value: 1.05%); type: functional
K562 [7] = assay: Induction of apoptosis in human K562 cells assessed as viable cells at 15 uM measured after 48 hrs by annexin-V/FITC and propidium iodide double staining based flow cytometry analysis (reference value: 92.67%); type: functional; details: read-out: Activity
K562 [8] = assay: Induction of apoptosis in human K562 cells assessed as early apoptotic cells at 10 uM measured after 48 hrs by annexin-V/FITC and propidium iodide double staining based flow cytometry analysis (reference value: 3.57%); type: functional
K562 [9] = assay: Induction of cell cycle arrest in human K562 cells assessed as increase in accumulation of cells at G0/G1 phase at 1 to 20 uM measured after 48 hrs by PI staining based flow cytometry analysis; type: functional; details: dose 1-20 µM
K562 [10] = assay: Induction of apoptosis in human K562 cells assessed as early apoptotic cells at 15 uM measured after 48 hrs by annexin-V/FITC and propidium iodide double staining based flow cytometry analysis (reference value: 3.57%); type: functional
K562 [11] = assay: Induction of apoptosis in human K562 cells assessed as late apoptotic cells at 1 uM measured after 48 hrs by annexin-V/FITC and propidium iodide double staining based flow cytometry analysis (reference value: 2.72%); type: functional
K562 [12] = assay: Induction of apoptosis in human K562 cells assessed as late apoptotic cells at 15 uM measured after 48 hrs by annexin-V/FITC and propidium iodide double staining based flow cytometry analysis (reference value: 2.72%); type: functional
K562 [13] = assay: Induction of apoptosis in human K562 cells assessed as necrotic cells at 1 uM measured after 48 hrs by annexin-V/FITC and propidium iodide double staining based flow cytometry analysis (reference value: 1.05%); type: functional
K562 [14] = assay: Induction of cell cycle arrest in human K562 cells assessed as reduction in accumulation of cells at S phase at 1 to 20 uM measured after 48 hrs by PI staining based flow cytometry analysis; type: functional; details: dose 1-20 µM
K562 [15] = assay: Induction of apoptosis in human K562 cells assessed as viable cells at 1 uM measured after 48 hrs by annexin-V/FITC and propidium iodide double staining based flow cytometry analysis (reference value: 92.67%); type: functional; details: read-out: Activity
K562 [16] = assay: Induction of apoptosis in human K562 cells assessed as late apoptotic cells at 10 uM measured after 48 hrs by annexin-V/FITC and propidium iodide double staining based flow cytometry analysis (reference value: 2.72%); type: functional
K562 [17] = assay: Induction of apoptosis in human K562 cells assessed as necrotic cells at 15 uM measured after 48 hrs by annexin-V/FITC and propidium iodide double staining based flow cytometry analysis (reference value: 1.05%); type: functional
[18] = target: T1, Bcr/Abl fusion protein (Homo sapiens) (UniProt P00519+P11274); assay: Inhibition of wild type BCR-ABL in human K562 cells assessed as inhibition of STAT5 phosphorylation level measured after 48 hrs by Western blot analysis; type: cell-based; details: dose 0.1-15 µM
[19] = target: T1, Bcr/Abl fusion protein (Homo sapiens); assay: Inhibition of wild type BCR-ABL in human K562 cells assessed as inhibition of Bcr-Abl phosphorylation level at 1 uM measured after 48 hrs by Western blot analysis; type: cell-based
K562 [20] = assay: Induction of apoptosis in human K562 cells assessed as early apoptotic cells at 1 uM measured after 48 hrs by annexin-V/FITC and propidium iodide double staining based flow cytometry analysis (reference value: 3.57%); type: functional
K562 [21] = assay: Induction of apoptosis in human K562 cells assessed as viable cells at 10 uM measured after 48 hrs by annexin-V/FITC and propidium iodide double staining based flow cytometry analysis (reference value: 92.67%); type: functional; details: read-out: Activity
K562 [22] = assay: Induction of cell cycle arrest in human K562 cells assessed as increase in accumulation of cells at G2/M phase at 1 to 20 uM measured after 48 hrs by PI staining based flow cytometry analysis; type: functional; details: dose 1-20 µM
[23] = target: T1, Bcr/Abl fusion protein (Homo sapiens); assay: Inhibition of wild type BCR-ABL in human K562 cells assessed as inhibition of Bcr-Abl phosphorylation level at 20 uM measured after 48 hrs by Western blot analysis; type: cell-based
[24] = target: T1, Bcr/Abl fusion protein (Homo sapiens); assay: Inhibition of wild type BCR-ABL in human K562 cells assessed as inhibition of STAT5 phosphorylation level at 20 uM measured after 48 hrs by Western blot analysis; type: cell-based
[25] = target: T1, Bcr/Abl fusion protein (Homo sapiens); assay: Inhibition of wild type BCR-ABL in human K562 cells assessed as inhibition of Bcr-Abl phosphorylation level at high concentration measured after 48 hrs by Western blot analysis; type: cell-based
[26] = target: T1, Bcr/Abl fusion protein (Homo sapiens); assay: Inhibition of wild type BCR-ABL in human K562 cells assessed as inhibition of STAT5 phosphorylation level at high concentration measured after 48 hrs by Western blot analysis; type: cell-based
K562 [27] = assay: Induction of apoptosis in human K562 cells assessed as late apoptotic cells at 10 uM measured after 48 hrs by annexin-V/FITC and propidium iodide double staining based flow cytometry analysis (reference value: 10.34%); type: functional
K562 [28] = assay: Induction of apoptosis in human K562 cells assessed as necrotic cells at 1 uM measured after 48 hrs by annexin-V/FITC and propidium iodide double staining based flow cytometry analysis (reference value: 0.03%); type: functional
K562 [29] = assay: Induction of apoptosis in human K562 cells assessed as late apoptotic cells at 1 uM measured after 48 hrs by annexin-V/FITC and propidium iodide double staining based flow cytometry analysis (reference value: 10.34%); type: functional
K562 [30] = assay: Induction of apoptosis in human K562 cells assessed as viable cells at 1 uM measured after 48 hrs by annexin-V/FITC and propidium iodide staining double based flow cytometry analysis (reference value: 87.47%); type: functional; details: read-out: Activity
K562 [31] = assay: Induction of apoptosis in human K562 cells assessed as viable cells at 10 uM measured after 48 hrs by annexin-V/FITC and propidium iodide double staining based flow cytometry analysis (reference value: 87.47%); type: functional; details: read-out: Activity
K562 [32] = assay: Induction of apoptosis in human K562 cells assessed as early apoptotic cells at 10 uM measured after 48 hrs by annexin-V/FITC and propidium iodide double staining based flow cytometry analysis (reference value: 2.16%); type: functional
K562 [33] = assay: Induction of apoptosis in human K562 cells assessed as viable cells at 20 uM measured after 48 hrs by annexin-V/FITC and propidium iodide double staining based flow cytometry analysis (reference value: 87.47%); type: functional; details: read-out: Activity
K562 [34] = assay: Induction of apoptosis in human K562 cells assessed as early apoptotic cells at 1 uM measured after 48 hrs by annexin-V/FITC and propidium iodide double staining based flow cytometry analysis (reference value: 2.16%); type: functional
K562 [35] = assay: Induction of apoptosis in human K562 cells assessed as necrotic cells at 10 uM measured after 48 hrs by annexin-V/FITC and propidium iodide double staining based flow cytometry analysis (reference value: 0.03%); type: functional
K562 [36] = assay: Induction of cell cycle arrest in human K562 cells assessed as increase in accumulation of cells at G0/G1 phase measured after 48 hrs by PI staining based flow cytometry analysis; type: functional; details: dose 1-20 µM
K562 [37] = assay: Induction of apoptosis in human K562 cells assessed as necrotic cells at 20 uM measured after 48 hrs by annexin-V/FITC and propidium iodide double staining based flow cytometry analysis (reference value: 0.03%); type: functional
K562 [38] = assay: Induction of apoptosis in human K562 cells assessed as early apoptotic cells at 20 uM measured after 48 hrs by annexin-V/FITC and propidium iodide double staining based flow cytometry analysis (reference value: 2.16%); type: functional
K562 [39] = assay: Induction of apoptosis in human K562 cells assessed as late apoptotic cells at 20 uM measured after 48 hrs by annexin-V/FITC and propidium iodide double staining based flow cytometry analysis (reference value: 10.34%); type: functional

Bcr/Abl fusion protein, sequence (P00519 whole entry, the tested form may be a part): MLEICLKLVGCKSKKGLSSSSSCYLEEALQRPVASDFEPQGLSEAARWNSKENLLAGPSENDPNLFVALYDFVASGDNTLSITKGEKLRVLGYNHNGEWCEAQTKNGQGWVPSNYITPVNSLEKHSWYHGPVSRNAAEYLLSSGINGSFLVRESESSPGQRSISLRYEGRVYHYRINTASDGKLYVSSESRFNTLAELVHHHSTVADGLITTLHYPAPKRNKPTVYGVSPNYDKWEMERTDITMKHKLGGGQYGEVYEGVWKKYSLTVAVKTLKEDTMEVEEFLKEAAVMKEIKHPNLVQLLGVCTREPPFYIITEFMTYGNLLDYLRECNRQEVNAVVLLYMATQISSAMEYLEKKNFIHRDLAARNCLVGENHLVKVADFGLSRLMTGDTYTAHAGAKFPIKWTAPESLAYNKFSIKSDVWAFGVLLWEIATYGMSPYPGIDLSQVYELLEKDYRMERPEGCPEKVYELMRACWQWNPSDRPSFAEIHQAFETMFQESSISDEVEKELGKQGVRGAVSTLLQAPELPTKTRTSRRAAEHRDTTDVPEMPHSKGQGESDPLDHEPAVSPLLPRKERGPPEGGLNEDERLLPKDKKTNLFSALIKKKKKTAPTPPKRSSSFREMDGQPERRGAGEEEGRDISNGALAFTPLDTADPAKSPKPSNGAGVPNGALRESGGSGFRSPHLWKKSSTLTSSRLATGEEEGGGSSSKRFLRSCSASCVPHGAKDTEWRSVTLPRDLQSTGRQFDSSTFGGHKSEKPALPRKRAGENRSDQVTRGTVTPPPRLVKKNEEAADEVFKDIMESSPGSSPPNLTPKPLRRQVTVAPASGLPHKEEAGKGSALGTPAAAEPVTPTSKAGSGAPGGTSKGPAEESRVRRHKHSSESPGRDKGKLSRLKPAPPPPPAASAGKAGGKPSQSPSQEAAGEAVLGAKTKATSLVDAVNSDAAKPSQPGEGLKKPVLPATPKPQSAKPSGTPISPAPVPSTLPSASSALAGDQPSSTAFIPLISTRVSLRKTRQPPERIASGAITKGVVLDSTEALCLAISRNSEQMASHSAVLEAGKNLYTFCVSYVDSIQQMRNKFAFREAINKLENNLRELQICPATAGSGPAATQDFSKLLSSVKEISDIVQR
Bcr/Abl fusion protein, sequence (P11274 whole entry, further chain, the tested form may be a part): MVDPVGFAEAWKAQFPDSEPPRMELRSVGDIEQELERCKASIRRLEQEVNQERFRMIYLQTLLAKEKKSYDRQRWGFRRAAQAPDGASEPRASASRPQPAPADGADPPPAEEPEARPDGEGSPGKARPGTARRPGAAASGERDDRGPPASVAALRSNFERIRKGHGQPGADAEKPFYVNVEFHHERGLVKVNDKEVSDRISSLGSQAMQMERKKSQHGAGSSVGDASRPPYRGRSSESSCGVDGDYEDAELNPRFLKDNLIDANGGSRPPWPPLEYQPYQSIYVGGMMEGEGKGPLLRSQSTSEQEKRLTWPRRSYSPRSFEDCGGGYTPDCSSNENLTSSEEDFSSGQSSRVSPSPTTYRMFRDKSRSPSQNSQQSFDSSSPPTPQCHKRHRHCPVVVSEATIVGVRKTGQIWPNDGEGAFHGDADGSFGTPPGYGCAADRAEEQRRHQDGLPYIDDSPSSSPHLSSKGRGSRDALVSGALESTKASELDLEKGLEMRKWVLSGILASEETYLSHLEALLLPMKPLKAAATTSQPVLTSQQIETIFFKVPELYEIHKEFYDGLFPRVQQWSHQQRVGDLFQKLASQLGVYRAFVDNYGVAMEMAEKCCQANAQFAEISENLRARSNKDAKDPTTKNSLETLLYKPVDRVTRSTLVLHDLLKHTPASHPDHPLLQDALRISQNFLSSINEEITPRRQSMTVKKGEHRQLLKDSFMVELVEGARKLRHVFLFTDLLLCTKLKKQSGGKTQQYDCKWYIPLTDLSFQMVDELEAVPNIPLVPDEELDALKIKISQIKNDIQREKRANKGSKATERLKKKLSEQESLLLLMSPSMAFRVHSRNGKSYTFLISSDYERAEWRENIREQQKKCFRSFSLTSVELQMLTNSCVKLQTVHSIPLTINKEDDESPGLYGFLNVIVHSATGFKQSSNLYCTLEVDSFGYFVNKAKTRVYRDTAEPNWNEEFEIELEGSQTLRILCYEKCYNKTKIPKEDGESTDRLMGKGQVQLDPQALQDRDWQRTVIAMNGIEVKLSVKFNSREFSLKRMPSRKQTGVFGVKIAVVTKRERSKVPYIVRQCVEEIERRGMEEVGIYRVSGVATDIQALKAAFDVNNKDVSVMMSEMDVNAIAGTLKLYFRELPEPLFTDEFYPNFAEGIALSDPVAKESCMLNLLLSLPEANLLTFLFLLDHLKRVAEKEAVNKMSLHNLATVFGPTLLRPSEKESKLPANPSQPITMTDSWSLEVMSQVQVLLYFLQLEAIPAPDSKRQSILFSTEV
T1 sequence (P00519 whole entry, looked up, the tested form may be a part): as the sequence (P00519 whole entry, the tested form may be a part) above
T1 sequence (P11274 whole entry, looked up, the tested form may be a part): as the sequence (P11274 whole entry, further chain, the tested form may be a part) above

IC50 (K562 [2]) [nM]	IC50 (Bcr/Abl fusion protein) [nM]	IC50 [5] [nM]	Compound	Activity (HEK293) [%]	inhibition at 30 µM (BaF3 [1]) [%]	inhibition at 2 µM (BaF3 [3]) [%]	inhibition at 10 µM (BaF3 [4]) [%]	Activity (THP-1) [%]	other results
3.31	9.9	180	CC(=O)Nc1cc(-c2ccc(C(=O)N[C@H](C(=O)Nc3ccc(Cl)c(C(F)(F)F)c3)C(C)(C)C)cc2)ccn1	88	99.8	4.64	31.8	68	
0.93	3.93	66.9	CC(C)(C)[C@H](NC(=O)c1ccc(-c2ccnc(NS(C)(=O)=O)c2)cc1)C(=O)Nc1ccc(Cl)c(C(F)(F)F)c1	81	100	8.95	36.1	100	
0.61	1.44	48	CC(C)(C)[C@H](NC(=O)c1cccc(-c2ccc(NS(C)(=O)=O)nc2)c1)C(=O)Nc1ccc(Cl)c(C(F)(F)F)c1	100	99.6	10	100	65	Activity (K562 [6]): 0.4%; viability at 15 µM (K562 [7]): 82.5%; Activity (K562 [8]): 8.2%; Activity (K562 [9]): Active; Activity (K562 [10]): 8.69%; Activity (K562 [11]): 4.45%; Activity (K562 [12]): 8.48%; Activity (K562 [13]): 0.17%; Activity (K562 [14]): Active; viability at 1 µM (K562 [15]): 88.2%; Activity (K562 [16]): 8.64%; Activity (K562 [17]): 0.28%; inhibition [18]: Dose-dependent-effect; inhibition [19]: Active; Activity (K562 [20]): 7.15%; viability at 10 µM (K562 [21]): 82.8%; Activity (K562 [22]): Active; inhibition [23]: Active; inhibition [24]: Active
0.19	0.33	51	CC(C)(C)OC[C@H](NC(=O)c1ccc(-c2ccnc(NS(C)(=O)=O)c2)cc1)C(=O)Nc1ccc(Cl)c(C(F)(F)F)c1	93	96.7	7.49	27.6	94	

The next lines start with the compound.

Compound	IC50 (K562 [2]) [nM]	IC50 (Bcr/Abl fusion protein) [nM]	IC50 [5] [nM]	Activity (HEK293) [%]	inhibition at 30 µM (BaF3 [1]) [%]	inhibition at 2 µM (BaF3 [3]) [%]	inhibition at 10 µM (BaF3 [4]) [%]	Activity (THP-1) [%]	other results
CC(C)(C)OC[C@H](NC(=O)c1ccc(-c2ccnc(N)c2)cc1)C(=O)Nc1ccc(Cl)c(C(F)(F)F)c1	3.02	0.87	144	94	99.8	0.7	25.5	56	
CC(C)(C)OC[C@H](NC(=O)c1cccc(-c2ccc(NS(C)(=O)=O)nc2)c1)C(=O)Nc1ccc(Cl)c(C(F)(F)F)c1	2.59	10.6	138	88	96.7	0.62	99.9	77	
CC(C)(C)C(=O)Nc1ccc(-c2cccc(C(=O)N[C@H](C(=O)Nc3ccc(Cl)c(C(F)(F)F)c3)C(C)(C)C)c2)cn1	0.97	26.5	351	81	98.1	99.9	100	73	
Nc1ccc(-c2cccc(C(=O)N[C@@H](CO)C(=O)Nc3ccc(Cl)c(C(F)(F)F)c3)c2)cn1	2.13	1.6	148	93	88.3	-0.03	15.2	84	
CC(=O)Nc1ccc(-c2cccc(C(=O)N[C@@H](CO)C(=O)Nc3ccc(Cl)c(C(F)(F)F)c3)c2)cn1	0.85	0.33	66	85	90	-1.17	24.5	100	
CC(=O)Nc1cc(-c2ccc(C(=O)N[C@@H](COC(C)(C)C)C(=O)Nc3ccc(Cl)c(C(F)(F)F)c3)cc2)ccn1	0.06	0.231	37.5	95	98.1	7.66	64.1	66	inhibition [25]: Active; inhibition [26]: Active; Activity (K562 [27]): 38.85%; Activity (K562 [28]): 0.07%; Activity (K562 [29]): 24.67%; viability at 1 µM (K562 [30]): 73.9%; viability at 10 µM (K562 [31]): 59.4%; Activity (K562 [32]): 1.64%; viability at 20 µM (K562 [33]): 31.8%; Activity (K562 [34]): 1.37%; Activity (K562 [35]): 0.07%; Activity (K562 [36]): Dose-dependent-effect; Activity (K562 [37]): 0.07%; Activity (K562 [38]): 1.52%; Activity (K562 [39]): 66.61%; inhibition [23]: Active; inhibition [24]: Active
CC(C)(C)[C@H](NC(=O)c1ccc(-c2cncc(C(=O)NC3CC3)c2)cc1)C(=O)Nc1ccc(Cl)c(C(F)(F)F)c1	3.34	8.02	140	91	100	5.84	42.6	100	
